Measurements reported in patent US11673889B2, “Substituted imidazo[4,5-c][1,8]naphthyridines as phosphodiesterase inhibitors” (Nanjing Zhengxiang Pharmaceuticals Co., Ltd., priority 2019, dated 2023).

Experiments:
ENPP-1, MDA-MB-231 cells = target: T1, ENPP-1, MDA-MB-231 cells (Homo sapiens, UniProt P22413); experiment: cell-based; details: for inhibition at 20 µM: MDA-MB-231, read-out: % Inhibition (at 20 μM)
T1 sequence (P22413 1-925): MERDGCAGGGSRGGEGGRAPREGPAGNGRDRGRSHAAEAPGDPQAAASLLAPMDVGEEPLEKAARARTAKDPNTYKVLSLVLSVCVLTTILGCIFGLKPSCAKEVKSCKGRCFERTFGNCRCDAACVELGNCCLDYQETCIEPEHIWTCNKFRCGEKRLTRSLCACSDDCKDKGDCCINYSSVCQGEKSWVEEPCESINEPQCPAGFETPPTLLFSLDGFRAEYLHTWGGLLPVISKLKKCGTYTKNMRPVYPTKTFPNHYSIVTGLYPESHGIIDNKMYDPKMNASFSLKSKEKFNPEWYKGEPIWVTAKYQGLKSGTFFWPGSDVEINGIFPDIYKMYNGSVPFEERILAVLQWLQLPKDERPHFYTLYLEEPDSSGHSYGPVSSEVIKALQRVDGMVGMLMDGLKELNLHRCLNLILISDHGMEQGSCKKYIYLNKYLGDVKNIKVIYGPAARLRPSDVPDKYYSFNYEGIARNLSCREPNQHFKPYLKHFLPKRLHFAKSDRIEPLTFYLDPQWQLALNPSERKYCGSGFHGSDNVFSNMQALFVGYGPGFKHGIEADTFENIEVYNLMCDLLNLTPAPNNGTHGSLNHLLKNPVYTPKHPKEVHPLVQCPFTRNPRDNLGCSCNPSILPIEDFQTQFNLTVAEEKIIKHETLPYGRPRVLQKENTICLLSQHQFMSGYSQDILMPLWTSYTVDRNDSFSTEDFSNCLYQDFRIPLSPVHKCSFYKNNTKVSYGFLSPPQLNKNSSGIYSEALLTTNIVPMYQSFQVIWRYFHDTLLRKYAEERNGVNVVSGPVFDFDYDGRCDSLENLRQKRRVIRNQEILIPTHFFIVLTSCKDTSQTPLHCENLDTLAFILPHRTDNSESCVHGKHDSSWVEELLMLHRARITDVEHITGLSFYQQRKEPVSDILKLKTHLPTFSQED
Method: ENPP-1 were mainly expressed on the surface of cell membrane where it hydrolytes 2′3′-cGAMP to generate 5′-GMP and 5′-AMP. ENPP-1 also has the ability to hydrolyzes artificial phosphoric acid ester TMP-pNP to nucleotide-5′-monophosphate and p-nitrophcnol there, which is a chromogenic product.
8 point of different concentrations of each inhibitor were prepared with the final assay concentrations starting at 20 μM. 3× series dilution by DMEM medium without FBS was applied. Prior to adding inhibitors, 75000 cells per well were incubated at 37° C., 5% CO2 in DMEM for 24 hours. After removing the supernatant medium, 50 μL inhibitor solution was added into each well with cultured cells and incubate at 37° C., 5% CO2 for 60 minutes.
(§1) The IC50 values for percent inhibition versus compound concentration are determined by fitting the inhibition curves using a four-parameter variable slope model in GraphPad Prism® 8.

human soluble ENPP1 [1] = target: T2, human soluble ENPP1 (Homo sapiens, UniProt P22413); experiment: ENPP1 activity assay using p-Nitrophenyl-5′-AMP as a substrate; format: biochemical
T2 construct: 20 ng of human soluble ENPP1
T2 sequence (P22413 103-925 limits assumed): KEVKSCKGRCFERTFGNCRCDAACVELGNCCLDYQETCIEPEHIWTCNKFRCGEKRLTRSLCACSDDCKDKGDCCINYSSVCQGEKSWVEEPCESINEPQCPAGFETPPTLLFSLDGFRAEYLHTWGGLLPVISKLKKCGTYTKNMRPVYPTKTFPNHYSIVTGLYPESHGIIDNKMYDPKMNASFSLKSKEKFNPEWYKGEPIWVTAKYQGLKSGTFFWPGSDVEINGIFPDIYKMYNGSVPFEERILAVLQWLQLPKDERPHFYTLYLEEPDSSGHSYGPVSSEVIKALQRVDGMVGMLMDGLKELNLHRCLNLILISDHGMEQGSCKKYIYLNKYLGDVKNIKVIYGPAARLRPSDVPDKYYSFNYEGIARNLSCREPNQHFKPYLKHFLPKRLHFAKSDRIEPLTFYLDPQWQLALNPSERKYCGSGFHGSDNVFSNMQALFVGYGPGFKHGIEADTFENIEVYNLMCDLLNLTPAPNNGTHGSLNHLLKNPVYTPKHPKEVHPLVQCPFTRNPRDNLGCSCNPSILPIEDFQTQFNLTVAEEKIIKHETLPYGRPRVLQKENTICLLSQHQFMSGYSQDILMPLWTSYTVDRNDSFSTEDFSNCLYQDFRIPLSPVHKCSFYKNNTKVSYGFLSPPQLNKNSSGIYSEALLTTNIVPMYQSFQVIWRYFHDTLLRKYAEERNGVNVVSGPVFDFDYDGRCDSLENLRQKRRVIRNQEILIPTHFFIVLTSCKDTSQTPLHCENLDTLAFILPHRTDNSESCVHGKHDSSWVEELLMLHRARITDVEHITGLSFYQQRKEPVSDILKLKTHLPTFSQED
Method: AMP-pNP can be used as substrate of ENPP-1. Its hydrolysis products were nucleotide-5′-monophosphate and p-nitrophcnol, which is also a chromogenic product. The amount of p-nitrophenol product formed is measured using its absorbance at 405 nm, which is directly proportional to enzyme activity.
Load into a well with […] of human soluble ENPP1 in 50 μL and incubate at room temperature with 25 μL inhibitor solution (4× Final Concentration) for 30 mins prior adding 25 μL 3 mM AMP solution (2× Final Concentration) into the well, Incubate at RT for 1 hour. The amounts of released p-nitrophenolate were measured by reading OD value at 405 nm.
(§2) The percent inhibition at each compound is calculated as follows: % inhibition=(ODMAX−ODCOMPOUND)/(ODMAX−ODMIN)*100. (MAX: absence of ENPP1 inhibitors control, MIN: blank control.)
as §1

human soluble ENPP1 [2] = target: T2, human soluble ENPP1; experiment: ENPP1 activity assay using p-Nitrophenyl-5′-TMP as a substrate; format: biochemical
Method: ENPP1 is a transmembrane glycoprotein that hydrolyzes nucleotides and nucleotide derivatives with the formation of nucleotide-5′-monophosphates. ENPP1 hydrolyzes artificial phosphoric acid ester thymidine 5′monophosphate p-nitrophenyl ester (TMP-pNP) to nucleotide-5′-monophosphate and p-nitrophenol, which is a chromogenic product.
Load into a well with 20 ng of human soluble ENPP1 in 50 μL and incubate at room temperature with 25 μL inhibitor solution (4× Final Concentration) for 30 mins. Then, add 25 μL 2 mM TMP solution (2× Final Concentration) into the well, Incubate at RT for 1 hour.
as §2
The IC50 values for percent inhibition versus compound concentration were determined by fitting the inhibition curves using a four-parameter variable slope model in GraphPad Prism® 8.

[3] = substrate TMP-pNP, 20 ng human soluble ENPP1, Tris buffer pH 9.5, read-out: TMP-pNP (IC50)

| SMILES | IC50 (ENPP-1, MDA-MB-231 cells) [nM] | inhibition at 20 µM (ENPP-1, MDA-MB-231 cells) [%] | IC50 (human soluble ENPP1 [1]) [nM] | IC50 (human soluble ENPP1 [2]; [3]) [nM] | IC50 (human soluble ENPP1 [2]) [nM] |
| --- | --- | --- | --- | --- | --- |
| COc1ccc2c(ncc3nc(CC(N)=O)n(Cc4ccc(S(N)(=O)=O)c(F)c4)c32)n1 [Compound 84, 2-(1-(3-fluoro-4-sulfamoylbenzyl)-7-methoxy-1H-imidazo[4,5-c][1,8]naphthyridin-2-yl)acetamide] | 2500 | 76 | 8.4 | 3.5 | – |
| COc1ccc2c(ncc3nc(C4CNC4)n(Cc4ccc(S(N)(=O)=O)c(F)c4)c32)n1 [Compound 85, 4-((2-(azetidin-3-yl)-7-methoxy-1H-imidazo[4,5-c][1,8]naphthyridin-1-yl)methyl)-2-fluorobenzenesulfonamide] | 900 | 79 | 5.2 | – | 2 |
| COc1ccc2c(ncc3nc(C4CN(S(C)(=O)=O)C4)n(Cc4ccc(S(N)(=O)=O)c(F)c4)c32)n1 [Compound 86, 2-fluoro-4-((7-methoxy-2-(1-(methylsulfonyl)azetidin-3-yl)-1H-imidazo[4,5-c][1,8]naphthyridin-1-yl)methyl)benzenesulfonamide] | 620 | 80 | 3.2 | – | 0.81 |
| COc1ccc2c(n1)nc(C)c1ncn(Cc3ccc(S(N)(=O)=O)cn3)c12 [Compound 87, 6-((7-methoxy-4-methyl-1H-imidazo[4,5-c][1,8]naphthyridin-1-yl)methyl)pyridine-3-sulfonamide] | 360 | 85 | 4 | – | 1.3 |
| COc1ccc2c(n1)nc(C)c1ncn(Cc3ccc(S(N)(=O)=O)c(F)c3)c12 [Compound 88, 2-fluoro-4-((7-methoxy-4-methyl-1H-imidazo[4,5-c][1,8]naphthyridin-1-yl)methyl)benzenesulfonamide] | 2200 | 81 | 12 | – | 4 |
| COc1ccc2c(n1)nc(C)c1nc(C)n(Cc3cc(F)c(S(N)(=O)=O)cc3F)c12 [Compound 90, 2,5-difluoro-4-((7-methoxy-2,4-dimethyl-1H-imidazo[4,5-c][1,8]naphthyridin-1-yl)methyl)benzenesulfonamide] | 980 | 74 | 7.7 | – | 2.4 |
| COc1ccc2c(n1)nc(C)c1nc(C)n(Cc3ncc(S(N)(=O)=O)cn3)c12 [Compound 91a, 2-((7-methoxy-2,4-dimethyl-1H-imidazo[4,5-c][1,8]naphthyridin-1-yl)methyl)pyrimidine-5-sulfonamide] | > 6700 | 53 | 323 | 83 | – |
| COc1ccc2c(n1)nc(C)c1nc(CN(C)C)n(Cc3cc(F)c(S(N)(=O)=O)cc3F)c12 [Compound 92, 4-((2-((dimethylamino)methyl)-7-methoxy-4-methyl-1H-imidazo[4,5-c][1,8]naphthyridin-1-yl)methyl)-2,5-difluorobenzenesulfonamide] | 4100 | 68 | 29 | – | 9.3 |
| COCCc1nc2c(C)nc3nc(OC)ccc3c2n1Cc1cc(F)c(S(N)(=O)=O)cc1F [Compound 93, 2,5-difluoro-4-((7-methoxy-2-(2-methoxyethyl)-4-methyl-1H-imidazo[4,5-c][1,8]naphthyridin-1-yl)methyl)benzenesulfonamide] | 2200 | 74 | 13 | – | 3.7 |
| COc1ccc2c(n1)nc(C)c1nc(CO)n(Cc3cc(F)c(S(N)(=O)=O)cc3F)c12 [Compound 94, 2,5-difluoro-4-((2-(hydroxymethyl)-7-methoxy-4-methyl-1H-imidazo[4,5-c][1,8]naphthyridin-1-yl)methyl)benzenesulfonamide] | 2700 | 74 | 8.8 | – | 3.4 |
| COc1ccc2c(ncc3[nH]c(=O)n(Cc4ccc(S(N)(=O)=O)c(F)c4F)c32)n1 [Compound 95, 2,3-difluoro-4-((7-methoxy-2-oxo-2,3-dihydro-1H-imidazo[4,5-c][1,8]naphthyridin-1-yl)methyl)benzenesulfonamide] | 1400 | 75 | 4.6 | 1.4 | – |
| COc1ccc2c(ncc3[nH]c(=O)n(Cc4ccc(S(N)(=O)=O)nc4)c32)n1 [Compound 96, 5-((7-methoxy-2-oxo-2,3-dihydro-1H-imidazo[4,5-c][1,8]naphthyridin-1-yl)methyl)pyridine-2-sulfonamide] | 11000 | 57 | 5.4 | 1.7 | – |
| COc1ccc2c(ncc3[nH]c(=O)n(CC4CC(OS(N)(=O)=O)C4)c32)n1 (stereo not drawn) [Compound 97, 3-((7-methoxy-2-oxo-2,3-dihydro-1H-imidazo[4,5-c][1,8]naphthyridin-1-yl)methyl)cyclobutyl sulfamate] | 810 | 78 | 1.1 | – | 0.56 |
| COc1ccc2c(ncc3[nH]c(=O)n(Cc4ccc(S(N)(=O)=O)c(F)c4)c32)n1 [Compound 98, 2-fluoro-4-((7-methoxy-2-oxo-2,3-dihydro-1H-imidazo[4,5-c][1,8]naphthyridin-1-yl)methyl)benzenesulfonamide] | 3800 | 62 | 3 | 0.6 | – |
| COc1ccc2c(ncc3[nH]c(=O)n(Cc4ccc(S(N)(=O)=O)cn4)c32)n1 [Compound 99, 6-((7-methoxy-2-oxo-2,3-dihydro-1H-imidazo[4,5-c][1,8]naphthyridin-1-yl)methyl)pyridine-3-sulfonamide] | 600 | 77 | 0.79 | – | 0.27 |
